Measured values from patent publication US5885961A, “Methods of using epithelins to modulate cell proliferation” (Bristol-Myers Squibb Company, priority 1995, dated 1999).
“Also recorded” adds a separate entry of the source.

How the values were obtained:
Balb/MK cells [1] = assay: Murine keratinocyte growth assay (cell count); type: cell-based; conditions: for effect on growth of Balb/MK cells (rodent keratinocytes): FIG. 16A
Protocol: FIG. 16(A-B). (FIG. 16A) Effect of epithelin 1 and epidermal growth factor (EGF) on the growth of Balb/MK cells. Assays were performed as described in Section 6.2., infra. .circle-solid., epithelin 1; o, EGF (FIG. 16B) Effect of various concentrations of epithelin 2 on the epithelin 1 (20 ng/ml) induced growth of murine keratinocytes.
Balb/MK cells were plated at 1×10^4 cells per well in 1 ml of low calcium medium (Weissman and Aaronson, 1983, Cell 32:599-606; Carpenter and Zendegut, 1985, Anal. Biochem. 153:279-282) in 24-well Costar plates and incubated at 37° C. for 4-6 hours. Then media were removed and replaced with 1 ml of medium containing various concentrations of the test compound in triplicate. The control wells received only medium without any test material. The plates were incubated at 37° C. for 4 days, then medium was removed, wells were rinsed two times with 1 ml of phosphate-buffered saline, and the cells were detached with trypsin-EDTA and counted.

NRK-SA6 cells [2] = conditions: in the presence of TGFβ; Roberts et al., 1981; cited from earlier work
NRK cells = assay: Mitogenic activity on NRK cells in monolayer; type: cell-based, rat
[3] = test system: human colon carcinoma cell line HCT 116; assay: 125I-deoxyuridine incorporation into DNA, HCT 116; type: cell-based; conditions: maximum dose tested: 20 ng/ml epithelin 1, 270 ng/ml epithelin 2
mink lung CCL 64 cells = assay: 125I-deoxyuridine incorporation into DNA, CCL 64; type: cell-based
EGF receptors = EGF receptors (Homo sapiens, UniProt P00533); assay: Binding of 125I-EGF to its receptors
NRK-SA6 cells [4] = assay: Soft agar colony assay in the presence of TGFβ; type: cell-based, rat
Protocol: FIG. 17. Effect of epithelin 1 and 2 on NRK-SA6 cell colony formation in soft agar in the presence of TFGβ (1 ng/ml). The colony formation assay used is described in Section 6.2.3, infra. Solid bars, epithelin 1; stippled bar, epidermal growth factor; open bar, epithelin 2; hatched bar, 20 ng/ml epithelin 1 plus 500 ng/ml epithelin 2.
A 0.38 ml base layer of 0.5% agar (Agar Noble; Difco Laboratories, Detroit, Mich.) in DMEM containing 10% heat inactivated FBS was added to 24 well Costar tissue culture plates. 0.38 ml of 0.3% agar containing the same medium-FBS mixture, 6-12×10^3 test cells, and the test proteins at various concentrations were overlaid on the basal layer of agar. The plates were incubated at 37° C. in a humidified atmosphere of 5% CO2 in air. Colonies were enumerated unfixed and unstained, and the number of colonies was scored between days 7 and 10. Colonies were defined as a cluster of at least eight cells.

monkey kidney COS1 cells = assay: 125I-deoxyuridine incorporation into DNA, COS1; type: cell-based
Balb/MK cells [5] = assay: Growth stimulatory activity (GSA), 125I-deoxyuridine incorporation into DNA of murine keratinocytes; type: cell-based
Protocol: FIG. 15(A-B). (FIG. 15A) Effect of epithelin 1 and epithelin 2 on the stimulation of ^125 I-deoxyuridine incorporation into DNA of the murine keratinocyte cell line Balb/MK. 2,000-4,000 cells were plated per well in 96 well plates in low-calcium medium containing 5% dialyzed FBS. Then GSA assays were performed as described in Section 6.2., infra. .circle-solid., epithelin 1; o, epithelin 2. (FIG. 15B) Effect of various concentrations of epithelin 2 on epithelin 1 (20 ng/ml) elicited incorporation of ^125 I-deoxyuridine into DNA of Balb/MK cells.
Balb/MK cells were also used as indicator cells in 96 well plates to assess the growth inhibitory activity (GIA) or growth stimulatory activity (GSA) of a test material using ^125 I-deoxyuridine incorporation into DNA as described in the previous section.

[6] = Resistance of bioactivity to chemical, heat and enzyme treatment; type: physicochemical
Protocol: Epithelin 1 and epithelin 2 are resistant to treatment with 1M acetic acid, 1M ammonium hydroxide, 6M urea, 0.01M sodium metaperiodate, to heating at 56° C. for 30 minutes, and to treatment with various glycosidases or lipases. However, epithelin activity was sensitive to reduction, to reduction and 4-vinylpyridine treatment, and to digestion with proteinases such as trypsin, endoproteinase Lys-C, and endoproteinase Glu-C (V8).

[7] = test system: A431 human epidermoid carcinoma cells; assay: Cell growth inhibitory activity (GIA), 125I-deoxyuridine incorporation into DNA; type: cell-based
Protocol: The cell growth inhibitory activity (GIA) assays were performed in flat-bottom 96 well plates (Falcon 3072). Human epidermoid carcinoma of vulva cells (A431) were used as test cells for GIA. 3.5×10^3 cells in 50 μl of test medium (DMEM supplemented with 5% heat inactivated fetal bovine serum (FBS), penicillin/streptomycin (PS) and glutamine) were placed in all wells except peripheral wells. The peripheral wells received 50 μl PBS. Three hours later, 50 μl of test sample in test medium was added to each well, while control wells received only 50 μl of test medium. Three wells were used for each concentration of test sample. Plates were incubated at 37° C. for 2-3 days. Then, 100 μl of a solution of […] (^125 I-IUdR, 4Ci/mg-0.5 mCi/ml, 2 μl/ml in test medium) was added to each well and plates were incubated at 37° C. After 4-6 hours, the medium was aspirated from the wells, which were then washed once with 200 μl PBS. Then, 200 μl methanol was added to each well, plates were incubated for 10 minutes at room temperature, and the methanol was removed by aspiration. 200 μl of 1M sodium hydroxide was added to each well, the plates were incubated for 30 minutes at 37° C. Sodium hydroxide was removed with titertek plugs (Flow Labs). The plugs were transferred into 12×75 mm plastic tubes and counted in a gamma counter to quantify ^125 I-IUdR incorporation.

[8] = test system: human fibroblasts and several other human tumor cells; assay: 125I-deoxyuridine incorporation into DNA, human fibroblasts and other human tumor cells; type: cell-based; conditions: maximum dose tested: 20 ng/ml epithelin 1, 270 ng/ml epithelin 2

IC50 ([7]; A431 cells, read-out: concentration for 50% inhibition of 125I-deoxyuridine incorporation) [nM] | Substance | effect on growth of Balb/MK cells (rodent keratinocytes) (Balb/MK cells [1]) | anchorage-independent growth of rat kidney cells NRK-SA6 (NRK-SA6 cells [2]) | mitogenic activity on NRK cells in monolayer (NRK cells) | effect on growth of HCT 116 cells [3] | effect on 125I-deoxyuridine incorporation into DNA (mink lung CCL 64 cells) | effect on binding of 125I-EGF to its receptors (EGF receptors) | inhibition of epithelin 1-induced colony formation in soft agar (NRK-SA6 cells [4]; epithelin 2 at ~85 nM, epithelin 1 20 ng/ml) | anchorage-independent growth (colony formation in soft agar) of NRK cells (NRK-SA6 cells [4]; in the presence of TGFβ 1 ng/ml, FIG. 17) | effect on 125I-deoxyuridine incorporation into DNA (monkey kidney COS1 cells) | IC50 (Balb/MK cells [5]; Balb/MK cells, epithelin 1 20 ng/ml, FIG. 15B, read-out: 50% inhibition of epithelin 1 elicited 125I-deoxyuridine incorporation) [nM] | effect on 125I-deoxyuridine incorporation into DNA of Balb/MK cells (Balb/MK cells [5]; FIG. 15A) | resistance to 1M acetic acid, 1M ammonium hydroxide, 6M urea, 0.01M sodium metaperiodate, heating at 56° C. for 30 minutes, glycosidases or lipases [6] | sensitivity of activity to reduction, reduction and 4-vinylpyridine treatment, and proteinases (trypsin, Lys-C, Glu-C) [6] | IC50 (Balb/MK cells [1]; epithelin 1 20 ng/ml, FIG. 16B, read-out: 50% inhibition of epithelin 1-induced growth of Balb/MK cells) [nM] | 50% inhibition of DNA synthesis (125I-deoxyuridine incorporation) ([7]; A431 cells, purified protein, FIG. 14) [ng/well] | Specific Activity ([7]; final purification step Anal TSK-250 (Table III)) | specific activity of purified protein (GIA) ([7]; one unit = amount inhibiting 125I-deoxyuridine incorporation into A431 cells by 50%) | effect on human fibroblasts and several other human tumor cells [8]
– | EGF: epidermal growth factor, comparison growth factor (NSDSECPLSHDGYCLHDGVCMYIEALDKYACNCVVGYIGERCQYRDLKWWELR; UniProt P01133 971-1023, looked up) [reference compound] | did not proliferate in the absence of EGF or epithelin 1 | induces anchorage-independent growth | – | – | – | – | – | – | – | – | – | – | – | – | – | – | – | –
~750 | epithelin 2: single chain polypeptide of 57 amino acid residues, 12 cysteines, purified from rat kidney; antagonizes epithelin 1 growth stimulation (VVCPDAKTQCPDDSTCCELPTGKYGCCPMPNAICCSDHLHCCPQDTVCDLIQSKCIS) | did not exhibit any significant effect; also recorded: no effect | – | not | did not show any effect | significantly inhibited | Neither epithelin 1 nor epithelin 2 significantly affected the binding | about 50% | did not; also recorded: no effect | significantly inhibited | ~21 | did not show any significant effect | stable; also recorded: resistant | sensitive | ~7 | 450 | 3,810 Units/mg | 3.8×10^3 units/mg protein | Neither protein exhibited any significant effect
– | TGFα: transforming growth factor-α | – | induces anchorage-independent growth | – | – | – | – | – | – | – | – | – | – | – | – | – | – | – | –
